Laboratory results taken from US6617340B1, “N-(substituted glycyl)-pyrrolidines, pharmaceutical compositions containing them and their use in inhibiting dipeptidyl peptidase-IV” (Novartis AG, priority 1999, dated 2003).

Experiments:
[1] = biological target: T1, DPP-IV activity from human colonic carcinoma cell extracts (Caco-2) (Homo sapiens, UniProt P27487); experiment: Caco-2 DPP-IV Assay; type: biochemical; details: Caco-2 cell extract, substrate H-Alanine-Proline-pNA
T1 construct: Cell extract is prepared from cells solubilized in 10 mM Tris-HCl, 0.15 M NaCl, 0.04 t.i.u. aprotinin, 0.5% nonidet-P40; host or cells: Caco-2 (differentiated), NP-40 solubilized extract
T1 sequence (P27487 whole entry): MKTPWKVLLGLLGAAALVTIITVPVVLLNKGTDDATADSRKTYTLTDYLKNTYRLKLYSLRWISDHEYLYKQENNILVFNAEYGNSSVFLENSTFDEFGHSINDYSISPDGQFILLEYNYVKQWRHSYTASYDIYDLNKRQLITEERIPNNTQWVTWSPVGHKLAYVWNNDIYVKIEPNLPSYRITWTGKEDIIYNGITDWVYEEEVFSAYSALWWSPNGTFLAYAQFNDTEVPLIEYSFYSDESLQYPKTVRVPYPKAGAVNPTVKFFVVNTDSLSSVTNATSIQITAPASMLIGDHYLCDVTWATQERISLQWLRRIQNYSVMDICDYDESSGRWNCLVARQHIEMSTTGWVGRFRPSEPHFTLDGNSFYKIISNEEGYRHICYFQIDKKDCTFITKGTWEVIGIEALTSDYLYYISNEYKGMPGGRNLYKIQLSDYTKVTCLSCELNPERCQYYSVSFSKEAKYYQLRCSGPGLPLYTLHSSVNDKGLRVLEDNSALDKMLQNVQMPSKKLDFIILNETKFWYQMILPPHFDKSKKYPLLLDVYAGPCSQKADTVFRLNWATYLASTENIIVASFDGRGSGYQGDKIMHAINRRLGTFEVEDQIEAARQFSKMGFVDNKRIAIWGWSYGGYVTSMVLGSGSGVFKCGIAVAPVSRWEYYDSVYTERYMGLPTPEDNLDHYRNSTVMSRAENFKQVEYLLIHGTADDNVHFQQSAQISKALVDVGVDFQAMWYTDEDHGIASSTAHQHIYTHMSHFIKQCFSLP
Procedure: The human colonic carcinoma cell line Caco-2 was obtained from the American Type Culture Collection (ATCC HTB 37). Differentiation of the cells to induce DPP-IV expression was accomplished as described by Reisher, et al. in an article entitled “Increased expression of . . . intestinal cell line Caco-2” in Proc. Natl. Acad. Sci., Vol. 90, pgs. […] Cell extract is prepared from cells solubilized in 10 mM Tris-HCl, 0.15 M NaCl, 0.04 t.i.u. aprotinin, 0.5% nonidet-P40, pH 8.0, which is centrifuged at 35,000 g for 30 min. at 4° C. to remove cell debris. The assay is conducted by adding 20 μg solubilized Caco-2 protein, diluted to a final volume of 125 μl in assay buffer (25 mM Tris-HCl pH 7.4, 140 mM NaCl, 10 mM KCl, 1% bovine serum albumin) to microtiter plate wells. The reaction is initiated by adding 25 μl of 1 mM substrate (H-Alanine-Proline-pNA; pNA is p-nitroaniline). The reaction is run at room temperature for 10 minutes after which time a 19 μl volume of 25% glacial acetic acid is added to stop the reaction. […] A standard curve of free p-nitroaniline is generated using 0-500 μM solutions of free pNA in assay buffer. The curve generated is linear and is used for interpolation of substrate consumption (catalytic activity in nmoles substrate cleaved/min). […] The potency of the test compounds as DPP-IV inhibitors, expressed as IC50, is calculated from 8-point, dose-response curves using a 4-parameter logistic function.

[2] = biological target: T2, DPP-IV activity in rat plasma (Rattus norvegicus, UniProt P14740); experiment: rat plasma DPP-IV assay; type: biochemical; details: substrate H-Glycine-Proline-AMC
T2 construct: from tissue; host or cells: rat plasma
T2 sequence (P14740 37-767 limits assumed): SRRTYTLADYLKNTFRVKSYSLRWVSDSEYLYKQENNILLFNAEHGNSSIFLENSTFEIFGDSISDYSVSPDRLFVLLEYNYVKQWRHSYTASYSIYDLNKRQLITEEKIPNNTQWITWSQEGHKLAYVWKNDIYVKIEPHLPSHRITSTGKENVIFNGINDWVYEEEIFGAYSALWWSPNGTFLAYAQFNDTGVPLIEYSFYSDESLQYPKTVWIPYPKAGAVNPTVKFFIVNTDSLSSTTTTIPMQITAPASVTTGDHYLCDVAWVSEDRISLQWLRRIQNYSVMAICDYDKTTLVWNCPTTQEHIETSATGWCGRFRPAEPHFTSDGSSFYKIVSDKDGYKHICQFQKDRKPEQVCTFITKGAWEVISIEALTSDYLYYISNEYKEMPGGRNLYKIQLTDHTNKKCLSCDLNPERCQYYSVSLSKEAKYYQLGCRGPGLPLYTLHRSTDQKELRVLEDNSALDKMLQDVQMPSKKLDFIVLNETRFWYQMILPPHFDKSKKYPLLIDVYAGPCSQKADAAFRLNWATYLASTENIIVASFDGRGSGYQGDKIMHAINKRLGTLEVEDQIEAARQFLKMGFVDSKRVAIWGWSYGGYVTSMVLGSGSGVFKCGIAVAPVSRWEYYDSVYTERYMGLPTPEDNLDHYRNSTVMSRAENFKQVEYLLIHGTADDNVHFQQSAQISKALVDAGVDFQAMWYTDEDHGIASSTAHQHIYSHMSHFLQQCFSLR
Procedure: (§1) Briefly, five μl of plasma are added to 96-well flat-bottom mictotiter plates (Falcon), followed by the addition of 5 μl of 80 mM MgCl2 in incubation buffer (25 mM HEPES, 140 mM NaCl, 1% RIA-grade BSA, pH 7.8). After a 5 min. incubation at room temperature, the reaction is initiated by the addition of 10 μl of incubation buffer containing 0.1 mM substrate (H-Glycine-Proline-AMC; AMC is 7-amino-4-methylcoumarin). The plates are covered with aluminum foil (or kept in the dark) and incubated at room temperature for 20 min. […] A fluorescence-concentration curve of free AMC is generated using 0-50 μM solutions of AMC in assay buffer. The curve generated is linear and is used for interpolation of substrate consumption (catalytic activity in nmoles substrate cleaved/min). As with the previous assay, the potency of the test compounds as DPP-IV inhibitors, expressed as IC50, is calculated from 8-point, dose-response curves using a 4 parameter logistic function.

[3] = biological target: T3, DPP-IV activity in human plasma (Homo sapiens, UniProt P27487); experiment: human plasma DPP-IV assay; type: biochemical; details: substrate H-Glycine-Proline-AMC
T3 construct: from tissue; host or cells: human plasma
T3 sequence (P27487 39-766 limits assumed): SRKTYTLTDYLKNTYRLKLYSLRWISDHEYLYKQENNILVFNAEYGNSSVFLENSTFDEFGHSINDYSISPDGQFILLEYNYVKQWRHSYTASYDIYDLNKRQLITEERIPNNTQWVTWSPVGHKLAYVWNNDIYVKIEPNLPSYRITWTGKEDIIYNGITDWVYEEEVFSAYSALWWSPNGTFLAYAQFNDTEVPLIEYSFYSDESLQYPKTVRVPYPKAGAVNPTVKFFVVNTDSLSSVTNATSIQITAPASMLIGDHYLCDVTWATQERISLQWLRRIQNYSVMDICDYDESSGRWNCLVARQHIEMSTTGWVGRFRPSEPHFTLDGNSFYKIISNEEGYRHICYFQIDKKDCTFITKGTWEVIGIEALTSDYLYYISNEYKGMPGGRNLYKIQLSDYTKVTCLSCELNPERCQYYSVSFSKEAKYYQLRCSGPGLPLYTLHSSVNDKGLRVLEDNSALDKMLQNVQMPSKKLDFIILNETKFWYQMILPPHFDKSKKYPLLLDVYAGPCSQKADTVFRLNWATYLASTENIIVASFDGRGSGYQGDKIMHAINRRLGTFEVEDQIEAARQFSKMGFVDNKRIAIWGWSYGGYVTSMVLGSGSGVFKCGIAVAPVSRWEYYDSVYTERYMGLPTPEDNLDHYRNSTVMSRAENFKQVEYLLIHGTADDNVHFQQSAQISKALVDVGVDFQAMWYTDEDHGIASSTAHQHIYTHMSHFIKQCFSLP
Procedure: as §1

Row | IC50 [1] | IC50 [2] | melting point | IC50 [3] | SMILES
1 | 6.4 µM | 22.9 µM | 98 to 100 °C | 9.4 µM | O=C(CNCCNc1ccccn1)N1CCCC1 [Ex. 2D, 1-[2-[(pyridin-2-yl)amino]ethylamino]acetylpyrrolidine]
2 | 9.7 µM | 7.8 µM | 72 to 74 °C | 15.2 µM | O=C(CNC1(CO)CCCC1)N1CCCC1 [Ex. 2C, 1-[(1-hydroxymethylcyclopent-1-yl)amino]acetylpyrrolidine]
3 | 27.5 µM | 28.4 µM | – | 45.8 µM | O=C(CNCCNc1ncccn1)N1CCCC1 [Ex. 2B]

More lines, now with the values behind:

Row | SMILES | IC50 [1] | IC50 [2] | melting point | IC50 [3]
4 | N#Cc1ccc(NCCNCC(=O)N2CCCC2)nc1 [Ex. 2A, 1-[2-[(5-cyanopyridin-2-yl)amino]ethylamino]acetylpyrrolidine] | 2.6 µM | 4.4 µM | 122 to 123 °C | 9.2 µM
5 | O=C(CNCCNc1ccc(Cl)cn1)N1CCCC1 [Ex. 1, 1-[2-[(5-chloropyridin-2-yl)amino]ethylamino]acetylpyrrolidine] | 5.5 µM | 9.3 µM | – | 15.9 µM
